Results published in patent US12447153B2, “HER2 mutation inhibitors” (Array BioPharma Inc., priority 2021, dated 2025).

Legend:
EGFR wild type (EGFR WT) = EGFR wild type (EGFR WT) (Homo sapiens (Human), UniProt P00533); assay: Cellular Phosphorylation Assay, Assay 5 (EGF-stimulated EGFR phosphorylation, NIH 3T3 cells); assay type: cell-based
ErbB2 WT = ErbB2 WT (Homo sapiens (Human), UniProt P04626); assay: ErbB Enzyme Assay (HTRF KinEASE-TK), Assay 2; assay type: biochemical
[1] = target: ErbB2 with Exon 20 YVMA insertion (HER2-YVMA) (Homo sapiens (Human), UniProt P04626, INS775YVMA); assay: Cellular Phosphorylation Assay, Assay 4 (constitutive ErbB2 phosphorylation, NIH 3T3 cells); assay type: cell-based
Chain of ErbB2 with Exon 20 YVMA insertion (HER2-YVMA) (P04626 other isoform, or with tags, fused parts or gaps ins YVMA behind 775): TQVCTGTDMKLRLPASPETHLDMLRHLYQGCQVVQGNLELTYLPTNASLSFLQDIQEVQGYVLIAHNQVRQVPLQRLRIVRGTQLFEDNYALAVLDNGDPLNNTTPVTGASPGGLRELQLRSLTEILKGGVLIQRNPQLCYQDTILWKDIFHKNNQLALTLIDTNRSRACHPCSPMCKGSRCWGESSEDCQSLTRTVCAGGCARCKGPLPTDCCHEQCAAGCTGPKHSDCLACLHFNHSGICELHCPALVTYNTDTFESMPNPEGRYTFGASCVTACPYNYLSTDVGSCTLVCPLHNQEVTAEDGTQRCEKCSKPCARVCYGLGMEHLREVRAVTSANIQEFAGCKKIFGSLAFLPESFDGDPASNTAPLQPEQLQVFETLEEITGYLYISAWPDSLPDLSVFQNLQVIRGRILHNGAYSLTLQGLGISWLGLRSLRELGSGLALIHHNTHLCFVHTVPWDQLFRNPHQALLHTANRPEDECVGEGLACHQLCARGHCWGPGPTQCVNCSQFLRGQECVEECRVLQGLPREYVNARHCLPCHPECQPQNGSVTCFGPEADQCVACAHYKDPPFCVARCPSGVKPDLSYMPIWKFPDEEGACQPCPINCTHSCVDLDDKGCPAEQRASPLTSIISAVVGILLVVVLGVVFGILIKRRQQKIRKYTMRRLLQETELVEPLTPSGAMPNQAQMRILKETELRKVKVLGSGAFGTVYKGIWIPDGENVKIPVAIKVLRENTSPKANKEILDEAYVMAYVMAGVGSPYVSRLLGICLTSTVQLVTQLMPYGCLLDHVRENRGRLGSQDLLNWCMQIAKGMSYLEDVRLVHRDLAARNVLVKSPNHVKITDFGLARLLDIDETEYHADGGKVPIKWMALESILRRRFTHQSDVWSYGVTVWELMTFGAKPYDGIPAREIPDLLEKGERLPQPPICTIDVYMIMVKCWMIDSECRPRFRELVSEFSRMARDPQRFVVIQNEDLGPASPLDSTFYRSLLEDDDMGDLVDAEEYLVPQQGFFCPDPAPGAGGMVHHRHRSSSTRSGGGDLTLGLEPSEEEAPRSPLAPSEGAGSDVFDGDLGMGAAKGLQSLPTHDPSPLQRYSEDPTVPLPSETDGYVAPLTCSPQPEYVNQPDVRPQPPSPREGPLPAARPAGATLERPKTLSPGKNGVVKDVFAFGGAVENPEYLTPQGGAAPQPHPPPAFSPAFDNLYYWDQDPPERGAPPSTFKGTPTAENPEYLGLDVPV

EGFR = EGFR (Homo sapiens (Human), UniProt P00533); assay: ErbB Enzyme Assay (HTRF KinEASE-TK), Assay 3; assay type: biochemical
Chain of EGFR (P00533 25-1210): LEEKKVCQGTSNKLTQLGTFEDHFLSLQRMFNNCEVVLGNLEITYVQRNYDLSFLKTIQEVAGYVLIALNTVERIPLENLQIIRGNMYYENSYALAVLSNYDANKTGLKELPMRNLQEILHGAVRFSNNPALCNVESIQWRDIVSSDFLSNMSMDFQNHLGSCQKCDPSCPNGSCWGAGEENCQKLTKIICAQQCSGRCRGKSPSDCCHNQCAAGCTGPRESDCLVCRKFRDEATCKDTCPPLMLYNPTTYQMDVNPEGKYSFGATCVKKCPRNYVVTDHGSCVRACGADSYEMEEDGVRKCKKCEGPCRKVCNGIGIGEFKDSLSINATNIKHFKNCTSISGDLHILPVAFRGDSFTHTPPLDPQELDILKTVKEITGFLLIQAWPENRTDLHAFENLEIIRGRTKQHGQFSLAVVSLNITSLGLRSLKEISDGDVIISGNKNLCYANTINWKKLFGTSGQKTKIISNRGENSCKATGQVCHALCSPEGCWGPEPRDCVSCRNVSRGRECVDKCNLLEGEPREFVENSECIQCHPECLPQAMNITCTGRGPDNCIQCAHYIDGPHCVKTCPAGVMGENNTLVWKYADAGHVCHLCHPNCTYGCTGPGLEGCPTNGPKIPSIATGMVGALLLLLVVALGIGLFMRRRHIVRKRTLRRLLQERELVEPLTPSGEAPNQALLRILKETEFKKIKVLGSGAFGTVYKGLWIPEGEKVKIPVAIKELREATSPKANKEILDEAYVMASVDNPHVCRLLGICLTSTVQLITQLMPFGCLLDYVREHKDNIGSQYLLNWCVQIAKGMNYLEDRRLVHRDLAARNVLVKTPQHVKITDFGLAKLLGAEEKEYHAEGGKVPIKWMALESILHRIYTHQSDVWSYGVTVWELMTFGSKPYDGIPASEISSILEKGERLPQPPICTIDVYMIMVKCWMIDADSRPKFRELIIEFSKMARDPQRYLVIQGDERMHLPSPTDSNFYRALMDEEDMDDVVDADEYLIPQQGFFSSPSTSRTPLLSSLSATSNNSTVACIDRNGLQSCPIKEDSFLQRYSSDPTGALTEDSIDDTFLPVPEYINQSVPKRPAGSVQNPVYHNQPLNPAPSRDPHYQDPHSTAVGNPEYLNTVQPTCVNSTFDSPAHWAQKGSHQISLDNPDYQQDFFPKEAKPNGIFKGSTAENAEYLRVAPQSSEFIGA

[2] = EGF-stimulated EGFR WT phosphorylation
[3] = cellular EGFR WT phosphorylation, EGF-stimulated
[4] = cellular ErbB2 YVMA phosphorylation

Chain of EGFR wild type (EGFR WT) (P00533 25-1210): as above
Chain of ErbB2 WT (P04626 23-1255): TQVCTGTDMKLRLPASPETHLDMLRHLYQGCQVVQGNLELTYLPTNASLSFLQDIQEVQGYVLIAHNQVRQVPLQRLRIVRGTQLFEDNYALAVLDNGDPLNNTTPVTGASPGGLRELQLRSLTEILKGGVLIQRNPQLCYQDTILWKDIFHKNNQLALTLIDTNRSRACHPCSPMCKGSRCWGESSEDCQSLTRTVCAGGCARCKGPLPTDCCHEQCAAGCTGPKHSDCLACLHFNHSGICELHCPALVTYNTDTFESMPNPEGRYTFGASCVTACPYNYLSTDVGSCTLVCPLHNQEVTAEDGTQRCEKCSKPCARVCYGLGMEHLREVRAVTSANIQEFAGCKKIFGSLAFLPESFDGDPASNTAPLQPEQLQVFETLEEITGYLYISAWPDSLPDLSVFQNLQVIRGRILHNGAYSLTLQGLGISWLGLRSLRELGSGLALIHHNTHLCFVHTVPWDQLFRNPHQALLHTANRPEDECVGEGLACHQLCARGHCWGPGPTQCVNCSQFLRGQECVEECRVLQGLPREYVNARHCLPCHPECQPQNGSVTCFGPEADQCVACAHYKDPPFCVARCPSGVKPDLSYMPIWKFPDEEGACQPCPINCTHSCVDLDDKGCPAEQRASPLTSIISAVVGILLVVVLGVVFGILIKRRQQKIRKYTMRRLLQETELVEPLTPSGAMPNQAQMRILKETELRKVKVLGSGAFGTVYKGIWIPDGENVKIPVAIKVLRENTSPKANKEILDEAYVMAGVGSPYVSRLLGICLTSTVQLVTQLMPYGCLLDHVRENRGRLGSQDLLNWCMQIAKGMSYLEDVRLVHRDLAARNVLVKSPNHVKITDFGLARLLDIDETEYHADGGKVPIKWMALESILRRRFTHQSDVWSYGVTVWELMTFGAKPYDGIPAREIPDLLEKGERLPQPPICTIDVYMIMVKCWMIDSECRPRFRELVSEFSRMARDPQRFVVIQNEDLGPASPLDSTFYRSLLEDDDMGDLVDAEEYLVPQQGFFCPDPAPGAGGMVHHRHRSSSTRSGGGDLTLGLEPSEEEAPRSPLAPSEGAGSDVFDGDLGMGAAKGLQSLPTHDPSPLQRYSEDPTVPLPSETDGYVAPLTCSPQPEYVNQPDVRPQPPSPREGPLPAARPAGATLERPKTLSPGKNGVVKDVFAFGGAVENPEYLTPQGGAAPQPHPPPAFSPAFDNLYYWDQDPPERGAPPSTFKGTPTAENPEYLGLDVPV

## C=C(C)c1ccc2ncnc(Nc3ccc(Oc4ccc5c(c4)ncn5C)c(C)c3)c2n1 [Example 24, N-(3-methyl-4-((1-methyl-1H-benzo[d]imidazol-5-yl)oxy)phenyl)-6-(prop-1-en-2-yl)pyrido[3,2-d]pyrimidin-4-amine]
EGFR wild type (EGFR WT); [2]
  IC50: ≥ 5000 nM
ErbB2 WT; ErbB2 WT enzyme
  IC50: 194 nM
[1]; ErbB2 YVMA phosphorylation
  IC50: 70.6 nM
EGFR; EGFR enzyme
  IC50: ≥ 10000 nM

## C=CC(=O)N1C[C@H]2CC[C@@H]1CN2c1ccc2ncnc(Nc3cc(C)c(Oc4cnc5c(c4)ncn5C)cc3F)c2n1 [Example 367]
EGFR wild type (EGFR WT); [3]
  IC50: ≥ 5000 nM
ErbB2 WT; ErbB2 WT enzyme assay
  IC50: 2330 nM
[1]; [4]
  IC50: 70.4 nM
EGFR; EGFR enzyme assay
  IC50: ≥ 10000 nM

## C=CC(=O)N1CCN(c2ccc3ncnc(Nc4ccc(Oc5ccn6ncnc6c5)c(C(F)F)c4)c3n2)CC1(C)C [Example 451]
EGFR wild type (EGFR WT); [3]
  IC50: 3340 nM
ErbB2 WT; ErbB2 WT enzyme assay
  IC50: 106 nM
[1]; [4]
  IC50: 49.3 nM
EGFR; EGFR enzyme assay
  IC50: 6260 nM

## C=CC(=O)N1CC[C@@H]2C[C@H]1CN2c1ccc2ncnc(Nc3cc(C)c(Oc4ccc5c(c4)ncn5C)cc3F)c2n1 [Example 66, 1-((1S,5R)-6-(4-((2-fluoro-5-methyl-4-((1-methyl-1H-benzo[d]imidazol-5-yl)oxy)phenyl)amino)pyrido[3,2-d]pyrimidin-6-yl)-2,6-diazabicyclo[3.2.1]octan-2-yl)prop-2-en-1-one]
EGFR wild type (EGFR WT); [2]
  IC50: 153 nM
ErbB2 WT; ErbB2 WT enzyme
  IC50: 6.8 nM
[1]; ErbB2 YVMA phosphorylation
  IC50: 6.1 nM
EGFR; EGFR enzyme
  IC50: 84.5 nM

## C=CC(=O)N1C[C@H]2CC[C@@H]1C[C@H]2c1ccc2ncnc(Nc3ccc(Oc4cnc5c(c4)ncn5C)c(C)c3F)c2n1 [Example 423]
EGFR wild type (EGFR WT); [3]
  IC50: ≥ 5000 nM
ErbB2 WT; ErbB2 WT enzyme assay
  IC50: 125 nM
[1]; [4]
  IC50: 70.8 nM
EGFR; EGFR enzyme assay
  IC50: 2550 nM

## C=CC(=O)N1CCN(c2ccc3ncnc(Nc4ccc(Oc5ccn6ncnc6c5)c(Cl)c4F)c3n2)CC12CC2 [Example 363]
EGFR wild type (EGFR WT); [3]
  IC50: 35.8 nM
ErbB2 WT; ErbB2 WT enzyme assay
  IC50: 1.8 nM
[1]; [4]
  IC50: 3.2 nM
EGFR; EGFR enzyme assay
  IC50: 22.3 nM

## C=CC(=O)N1C[C@H]2C[C@H](c3ccc4ncnc(Nc5cc(C)c(Oc6ccn7ncnc7c6)cc5F)c4n3)C[C@H]2C1 [Example 201, 1-((3aR,5s,6aS)-5-(4-((4-([1,2,4]triazolo[1,5-a]pyridin-7-yloxy)-2-fluoro-5-methylphenyl)amino)pyrido[3,2-d]pyrimidin-6-yl)hexahydrocyclopenta[c]pyrrol-2(1H)-yl)prop-2-en-1-one]
EGFR wild type (EGFR WT); [2]
  IC50: ≥ 5000 nM
ErbB2 WT; ErbB2 WT enzyme
  IC50: 68.1 nM
[1]; ErbB2 YVMA phosphorylation
  IC50: 213 nM
EGFR; EGFR enzyme
  IC50: 9450 nM

## C=CC(=O)N1C[C@H]2CC[C@H](c3ccc4ncnc(Nc5ccc(Oc6ccn7ncnc7c6)c(C)c5)c4n3)[C@H]2C1 [Example 409]
EGFR wild type (EGFR WT); [3]
  IC50: ≥ 5000 nM
ErbB2 WT; ErbB2 WT enzyme assay
  IC50: 43.1 nM
[1]; [4]
  IC50: 34.6 nM
EGFR; EGFR enzyme assay
  IC50: 1970 nM

## C=CC(=O)N1CCN(c2ccc3ncnc(Nc4cc(C)c(Oc5ccn6ncnc6c5)cc4F)c3n2)C[C@H]1C(C)(C)C [Example 310]
EGFR wild type (EGFR WT); [3]
  IC50: ≥ 5000 nM
ErbB2 WT; ErbB2 WT enzyme assay
  IC50: 10000 nM
[1]; [4]
  IC50: 33.4 nM
EGFR; EGFR enzyme assay
  IC50: ≥ 10000 nM

## C=C(C)C(=O)N1CCN(c2ccc3ncnc(Nc4ccc(Oc5ccn6ncnc6c5)c(C)c4F)c3n2)CC1 [Example 364]
EGFR wild type (EGFR WT); [3]
  IC50: ≥ 5000 nM
ErbB2 WT; ErbB2 WT enzyme assay
  IC50: 127 nM
[1]; [4]
  IC50: 556 nM
EGFR; EGFR enzyme assay
  IC50: ≥ 10000 nM

## C=CC(=O)N1C[C@@H]2C[C@H]1CC[C@@H]2c1ccc2ncnc(Nc3cc(C)c(Oc4ccn5ncnc5c4)cc3F)c2n1 [Example 380]
EGFR wild type (EGFR WT); [3]
  IC50: ≥ 5000 nM
ErbB2 WT; ErbB2 WT enzyme assay
  IC50: 68.1 nM
[1]; [4]
  IC50: 125 nM
EGFR; EGFR enzyme assay
  IC50: 5680 nM

## C=CC(=O)N1CCN(c2ccc3ncnc(Nc4ccc(Oc5ccn6ncnc6c5)c(C)c4F)c3n2)C[C@H]1C1CC1 [Example 283]
EGFR wild type (EGFR WT); [3]
  IC50: 1380 nM
ErbB2 WT; ErbB2 WT enzyme assay
  IC50: 28.2 nM
[1]; [4]
  IC50: 33.6 nM
EGFR; EGFR enzyme assay
  IC50: 4550 nM

## C=CC(=O)N1C[C@H]2C[C@H](c3ccc4ncnc(Nc5ccc(Oc6ccn7ncnc7c6)c(C)c5F)c4n3)C[C@H]2C1 [Example 200, 1-((3aR,5s,6aS)-5-(4-((4-([1,2,4]triazolo[1,5-a]pyridin-7-yloxy)-2-fluoro-3-methylphenyl)amino)pyrido[3,2-d]pyrimidin-6-yl)hexahydrocyclopenta[c]pyrrol-2(1H)-yl)prop-2-en-1-one]
EGFR wild type (EGFR WT); [2]
  IC50: ≥ 5000 nM
ErbB2 WT; ErbB2 WT enzyme
  IC50: 16.2 nM
[1]; ErbB2 YVMA phosphorylation
  IC50: 83.5 nM
EGFR; EGFR enzyme
  IC50: 2780 nM
